Converted amounts (≈) assume the structure as drawn.
Tests used:
Rattus norvegicus [1] = assay: Anti-inflammatory activity against carrageenan-induced Albino Wistar rat paw edema model assessed as inhibition of rat paw edema at 50 mg/kg, po after 3 hrs relative to control; type: functional; set-up: scale not given: the % may be the effect or the level left
Rattus norvegicus [2] = assay: Anti-ulcerative activity in Carrageenan-induced Sprague-Dawley rat ulcer model assessed as inhibition of ulcer index at 10 mg/kg,po; type: functional
Rattus norvegicus [3] = assay: Anti-inflammatory activity in Carageenan-induced foot paw edema in Swiss albino rat assessed as reduction in volume of paw edema measured after 1 hr relative to control; type: functional; set-up: scale not given: the % may be the effect or the level left
Rattus norvegicus [4] = assay: Anti-inflammatory activity in Carageenan-induced foot paw edema in Swiss albino rat assessed as reduction in volume of paw edema measured after 2 hr relative to control; type: functional; set-up: scale not given: the % may be the effect or the level left
Rattus norvegicus [5] = assay: Anti-inflammatory activity in Carageenan-induced foot paw edema in Swiss albino rat assessed as reduction in volume of paw edema measured after 4 hr relative to control; type: functional; set-up: scale not given: the % may be the effect or the level left
Rattus norvegicus [6] = assay: Anti-inflammatory activity in Carageenan-induced foot paw edema in Swiss albino rat assessed as reduction in volume of paw edema measured after 6 hr relative to control; type: functional; set-up: scale not given: the % may be the effect or the level left
Rattus norvegicus [7] = assay: Anti-inflammatory activity against Carrageenan-induced paw edema in PO dosed Wistar albino rat assessed as reduction in hind paw edema volume at 20 mg/kg relative to control; type: functional; set-up: scale not given: the % may be the effect or the level left
[8] = target: T1, Polyunsaturated fatty acid 5-lipoxygenase (Homo sapiens, UniProt P09917); assay: Inhibition of 5-LOX (unknown origin) after 5 mins by colorimetric method
T1 sequence (P09917 whole entry): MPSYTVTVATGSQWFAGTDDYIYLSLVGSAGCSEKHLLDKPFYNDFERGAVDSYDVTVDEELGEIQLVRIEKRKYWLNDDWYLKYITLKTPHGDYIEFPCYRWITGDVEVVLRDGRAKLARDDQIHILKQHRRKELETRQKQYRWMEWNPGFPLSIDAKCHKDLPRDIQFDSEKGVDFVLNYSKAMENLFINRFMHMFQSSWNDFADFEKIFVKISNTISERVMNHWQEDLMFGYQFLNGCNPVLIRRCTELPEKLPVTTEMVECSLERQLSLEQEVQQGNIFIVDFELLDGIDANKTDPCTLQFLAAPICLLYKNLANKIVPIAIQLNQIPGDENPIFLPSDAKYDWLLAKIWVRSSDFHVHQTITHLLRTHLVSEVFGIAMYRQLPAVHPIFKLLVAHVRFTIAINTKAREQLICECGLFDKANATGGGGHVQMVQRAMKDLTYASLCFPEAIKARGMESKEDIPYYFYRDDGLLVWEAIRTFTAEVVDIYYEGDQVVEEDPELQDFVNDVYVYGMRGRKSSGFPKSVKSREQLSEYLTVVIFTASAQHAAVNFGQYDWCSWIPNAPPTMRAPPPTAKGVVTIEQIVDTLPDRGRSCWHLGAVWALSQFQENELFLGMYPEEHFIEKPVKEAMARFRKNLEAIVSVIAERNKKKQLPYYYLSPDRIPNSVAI

Erythrocyte = assay: Anti-inflammatory activity in human red blood cells assessed as stabilization of cell membrane; type: functional, cell-based
Rattus norvegicus [9] = assay: Anti-inflammatory activity against formalin-induced foot paw edema in PO dosed rat at 10 mg/kg assessed as inhibition of edema measured after 4 hr relative to control; type: functional
[10] = target: T2, Prostaglandin G/H synthase 2 (Homo sapiens) (UniProt P35354); assay: Inhibition of COX-2 (unknown origin) assessed as inhibition at 100 mg/kg relative to control; type: organism-based
T2 sequence (whole entry): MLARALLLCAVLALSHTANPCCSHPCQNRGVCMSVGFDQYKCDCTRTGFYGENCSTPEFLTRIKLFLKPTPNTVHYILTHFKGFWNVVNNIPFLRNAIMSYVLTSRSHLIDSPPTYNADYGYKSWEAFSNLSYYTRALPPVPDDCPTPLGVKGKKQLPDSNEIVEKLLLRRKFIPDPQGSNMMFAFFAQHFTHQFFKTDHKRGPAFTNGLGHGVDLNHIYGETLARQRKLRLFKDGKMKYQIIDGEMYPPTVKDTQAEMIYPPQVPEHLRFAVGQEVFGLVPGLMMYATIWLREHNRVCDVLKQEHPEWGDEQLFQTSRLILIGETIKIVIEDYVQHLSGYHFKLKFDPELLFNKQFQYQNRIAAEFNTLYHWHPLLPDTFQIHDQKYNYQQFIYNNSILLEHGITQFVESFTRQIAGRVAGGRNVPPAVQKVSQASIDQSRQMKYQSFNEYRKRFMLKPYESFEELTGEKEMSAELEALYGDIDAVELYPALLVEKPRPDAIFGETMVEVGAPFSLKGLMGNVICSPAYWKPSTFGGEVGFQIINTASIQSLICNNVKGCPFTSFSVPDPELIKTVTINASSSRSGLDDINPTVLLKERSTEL

RAW264.7 = assay: Anti-inflammatory activity in mouse RAW264.7 cells assessed as inhibition of LPS-induced NO production in macrophages; type: functional, cell-based
[11] = Anti-inflammatory activity assessed as heat -induced protein denaturation using hen egg albumin at 31.25 ug/ml relative to control; type: functional; settings: dose 31.25 µg/ml
[12] = Selectivity index, ratio of IC50 for ovine COX1 to IC50 for recombinant human COX2
[13] = Anti-inflammatory activity assessed as protein denaturation using bovine serum albumin relative to control; type: functional
Rattus norvegicus [14] = assay: Anti-inflammatory activity against Carrageenan-induced paw edema in PO dosed Wistar albino rat assessed as inhibition of edema measured after 1 hr relative to control; type: functional; set-up: scale not given: the % may be the effect or the level left
Rattus norvegicus [15] = assay: Anti-inflammatory activity against Carrageenan-induced paw edema in PO dosed Wistar albino rat assessed as inhibition of edema measured after 2 hr relative to control; type: functional; set-up: scale not given: the % may be the effect or the level left
Rattus norvegicus [16] = assay: Anti-inflammatory activity against Carrageenan-induced paw edema in PO dosed Wistar albino rat assessed as inhibition of edema measured after 4 hr relative to control; type: functional; set-up: scale not given: the % may be the effect or the level left
Rattus norvegicus [17] = assay: Anti-ulcerative activity in aspirin induced Wistar rat ulcer model assessed as inhibition of ulcer index at 20 mg/kg,po; type: functional
Mus musculus = assay: Anti-inflammatory activity against Carrageenan-induced paw edema in mouse model assessed as inhibition of edema at 100 mg/kg measured after 3 hrs relative to control; type: functional; set-up: scale not given: the % may be the effect or the level left
Rattus norvegicus [18] = assay: Anti-inflammatory activity against Carrageenan-induced paw edema in PO dosed Wistar albino rat assessed as inhibition of edema measured after 3 hr relative to control; type: functional; set-up: scale not given: the % may be the effect or the level left
[19] = target: T3, Prostaglandin G/H synthase 1 (Ovis aries, UniProt P05979); assay: Inhibition of ovine COX-1 by EIA method
T3 sequence (P05979 whole entry): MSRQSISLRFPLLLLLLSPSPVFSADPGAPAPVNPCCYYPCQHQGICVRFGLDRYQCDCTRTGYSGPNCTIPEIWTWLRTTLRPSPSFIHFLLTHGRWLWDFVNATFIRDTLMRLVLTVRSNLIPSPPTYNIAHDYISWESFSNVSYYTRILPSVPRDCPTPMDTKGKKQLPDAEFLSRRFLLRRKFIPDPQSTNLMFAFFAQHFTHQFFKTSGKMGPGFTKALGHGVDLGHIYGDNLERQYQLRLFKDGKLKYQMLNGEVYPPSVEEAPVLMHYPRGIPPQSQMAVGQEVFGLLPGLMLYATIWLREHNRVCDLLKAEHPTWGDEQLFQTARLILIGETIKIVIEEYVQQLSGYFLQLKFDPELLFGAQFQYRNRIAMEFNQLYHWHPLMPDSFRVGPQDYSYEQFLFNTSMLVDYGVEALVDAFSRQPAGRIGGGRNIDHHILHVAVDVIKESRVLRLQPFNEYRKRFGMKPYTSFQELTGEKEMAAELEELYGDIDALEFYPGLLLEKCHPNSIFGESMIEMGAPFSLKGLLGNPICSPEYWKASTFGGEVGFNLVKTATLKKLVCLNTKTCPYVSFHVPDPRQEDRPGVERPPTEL

CS(=O)(=O)c1ccc(-n2cc(/C=N/Nc3ccc(S(N)(=O)=O)cc3)c(-c3ccc(Br)cc3)n2)cc1
Activity (Rattus norvegicus [1]): 80% | UI (Rattus norvegicus [2]): 3.77

CCCC1Nc2cc(C(=O)N/N=C/c3ccc(Cl)c(Cl)c3O)cc(C)c2N1 (stereo not given)
Activity (Rattus norvegicus [3]): 43.3% | Activity (Rattus norvegicus [4]): 57.62% | Activity (Rattus norvegicus [5]): 79.51% | Activity (Rattus norvegicus [6]): 83.5%

COc1ccc(N/N=C2\C(=O)N(CNc3c(C)cccc3C)N=C2Nc2ccccc2F)cc1
Activity (Rattus norvegicus [7]): 51%

N=C1/C(=N\Nc2ccc(Cl)cc2)C(N)=NN1c1ccc(S(N)(=O)=O)cc1
IC50 [8]: 2310 nM

Oc1ccccc1-c1cc(-c2cc3cc4ccccc4nc3s2)[nH]n1
EC50 (Erythrocyte): 11 µg/mL (≈ 32 µM)

Nc1cc(-c2ccccc2)nn1-c1nc2c(cnn2-c2ccccc2)c(=O)n1-c1ccccc1
inhibition in vivo at 10 mg/kg (Rattus norvegicus [9]): 50%

CC(=O)Oc1ccccc1C(=O)O
inhibition [10]: 11.1%

C=CC1=CN=CC2C(=O)N3CCc4c([nH]c5ccccc45)C3=CC12 (stereo not given)
IC50 (RAW264.7): 1280 nM

Oc1ccc(Cl)cc1-c1cc(-c2cc3cc4ccccc4nc3s2)[nH]n1
EC50 (Erythrocyte): 14 µg/mL (≈ 37.1 µM)

Cc1c(/N=C/c2c(OCc3cc(=O)oc4cc(O)ccc34)ccc3ccccc23)c(=O)n(-c2ccccc2)n1C
Activity [11]: 67.3%

Cc1cc(-c2ccccc2)n(-c2nc3c(cnn3-c3ccccc3)c(=O)n2-c2ccccc2)n1
Selectivity Index [12]: 5.44

O=C(O)Cc1ccccc1Nc1c(Cl)cccc1Cl
Activity [13]: 84.1%

CC(=O)Nc1ccc(OC(=O)CCCC(=O)/C=C/c2cn(-c3ccccc3)nc2-c2ccccc2)cc1
Activity (Rattus norvegicus [14]): 20% | Activity (Rattus norvegicus [15]): 15.56% | Activity (Rattus norvegicus [16]): 28.57%

O=C1/C(=N\Nc2ccccc2Br)C(Nc2ccccc2F)=NN1CNc1ccccc1
Activity (Rattus norvegicus [7]): 64%

CC(C)Cc1ccc(C(C)C(=O)O)cc1 (stereo not given) [IBUPROFEN]
UI (Rattus norvegicus [17]): 20.25 | UI (Rattus norvegicus [2]): 20.25 | Activity (Mus musculus): 70.65%

N#CC(C#N)/N=N/c1ccc2c(c1)CCC2
Activity (Rattus norvegicus [18]): 64.83%

O=C1NC(=O)C(=NNc2cccc(-c3nc4ccccc4[nH]3)c2)C(=O)N1
IC50 [19]: 2760 nM

Source: ChEMBL document CHEMBL5233249, “Recent advancements in the development of heterocyclic anti-inflammatory agents” (Eur J Med Chem, 2020)
